Measured values as given in PMC6356585 (Viruses, 2018).
Structures can show the parent of a compound that is named as a salt. Where two headings read alike, the source gives them in different places.

What was measured:
[1] = tested on: ZIKV SPH; assay: Autophagy compound library screen, ZIKV SPH titer (TCID50) in C6/36 cells; type: cell-based, Zika virus; conditions: 10 µM compound, MOI 0.1, 96 h, TCID50, ± SEM, three independent trials; for activity at 10 µM: Zika virus, C6/36, read-out: ZIKV SPH Relative Titer in C6/36 Cells
[2] = tested on: C6/36 cells; type: cell-based, Ae. albopictus
[3] = tested on: autophagic vesicles in Vero cells; assay: Autophagy detection (CYTO-ID) in Vero cells; type: cell-based; conditions: 10 µM compound, 24 h, CYTO-ID green MFI vs DMSO control
[4] = tested on: ZIKV IbH; assay: Autophagy compound screen in Vero cells infected with ZIKV IbH; type: cell-based, Zika virus; conditions: African-lineage ZIKV IbH, 10 µM
[5] = tested on: ZIKV SPH; assay: ZIKV SPH titer in compound-treated human neurons; type: cell-based, Zika virus; conditions: 10 µM, ZIKV SPH MOI 1.0, 4 days, TCID50
[6] = tested on: ZIKV SPH; assay: 7-Ketocholesterol dose-response, ZIKV SPH titer in Vero cells; type: cell-based; conditions: Zika virus, MOI 1, 24 h, 0–27 µM, TCID50, R^2 = 0.9078
[7] = tested on: ZIKV SPH; assay: Time-of-addition assay in Vero cells; type: cell-based, Zika virus; conditions: for ZIKV titer, time-of-addition / Decrease of ZIKV titers, time-of-addition / ZIKV replication, time-of-addition: Vero
[8] = tested on: ZIKV SPH; assay: 7-Ketocholesterol and ZIKV pre-incubation (virucidal effect); type: cell-based, Zika virus; conditions: 200 µM 7-KC, 1 h, room temperature, then diluted to approx. 0.2 µM on Vero cells, MOI 0.1, 40 hpi
[9] = tested on: ZIKV SPH; assay: qRT-PCR of ZIKV genomes in cells and supernatants; type: cell-based, Zika virus
[10] = tested on: human papillomavirus; design: method as in ref 39 = [39]; conditions: cited from earlier work
[11] = tested on: human rotavirus; design: method as in ref 39 = [39]; conditions: cited from earlier work
[12] = tested on: human rhinovirus; design: method as in ref 39 = [39]; conditions: cited from earlier work
[13] = tested on: ZIKV; design: method as in ref 43 = [43]; conditions: by inhibiting viral entry; cited from earlier work
[14] = tested on: ZIKV; design: method as in ref 43 = [43]; conditions: by inhibiting viral entry; cited from earlier work; remark: listed apart in the source
[15] = tested on: ZIKV SPH; assay: Autophagy compound library screen, ZIKV SPH titer (TCID50) in Vero cells; type: cell-based, Zika virus; conditions: 10 µM compound, MOI 0.1, 40 h, TCID50, ± SEM, three independent trials
[16] = tested on: Vero cells; assay: Cell viability (CellTiter-Glo) of Vero cells; type: cell-based; conditions: 10 µM
[17] = tested on: ZIKV; design: method as in ref 12 = [12]; conditions: cited from earlier work
[18] = 10 µM compound, 96 h, CellTiter-Glo, ± SEM, three independent trials

For `CC(C)CCC[C@@H](C)[C@H]1CC[C@H]2[C@@H]3C(=O)C=C4C[C@@H](O)CC[C@]4(C)[C@H]3CC[C@]12C` [7-Ketocholesterol], the activity at 10 µM [1] was 9.8 ± 3.3%, the “C6/36 Viability” value [2, 18] was 36 ± 5.1% of untreated control and the “Autophagy Activity Factor (AAF)” value [3] was 27.01. The “Reduction of ZIKV IbH” value [4] was “more than 90 % of control”, the “ZIKV IbH titer in Vero cells compared to control” value [4] was “reduced ZIKV IbH titers” and the “ZIKV IbH titer in Vero cells compared to control” value ([4]; listed as 7-KC) was “dropped titers more than a log”. The “ZIKV titer in human neurons” value [5] was “reduced ZIKV titer”, the IC50 [6] was 4.06 µM and the “ZIKV titer, time-of-addition” value ([7]; 10 µM 7-KC added 12 h after infection, 24 hpi) was “ZIKV inhibition continued”. For the same compound, the “ZIKV titer, time-of-addition” value ([7]; 10 µM 7-KC added 18 h after infection, 24 hpi) was “slight decrease in titer”, the “Decrease of ZIKV titers, time-of-addition” value (“Decrease of ZIKV titers” below) ([7]; 10 µM 7-KC added at 2 hpi, MOI 0.1, 24 hpi) was 90% and the “Decrease of ZIKV titers” value ([7]; 10 µM 7-KC added at 6 hpi, MOI 0.1, 24 hpi) was 90%. For the same compound, the “Decrease of ZIKV titers” value ([7]; 10 µM 7-KC added at the time of infection, MOI 0.1, 24 hpi) was 90%, the “ZIKV titer, time-of-addition” value ([7]; 10 µM 7-KC, pre-treating cells 2 h before infection, MOI 0.1, 24 hpi) was “did not reduce viral titers” and the “Decrease in infectious virions” value ([7]; Vero cells, 10 µM 7-KC, 24 hpi) was “greater than 90%”. The “ZIKV titer after preincubation of virus stock with compound (virucidal effect)” value [8] was “did not reduce viral titers”, the “Budding/release efficiency (genomes in supernatant vs cell associated genomes)” value ([9]; Vero cells, 10 µM 7-KC, 24 hpi) was “approximately 30 % of untreated cells” and the “Number of viral genome copies in the supernatant” value ([9]; Vero cells, 10 µM 7-KC, 24 hpi) was “reduced”. For the same compound, the “Levels of ZIKV RNA in infected cells” value ([9]; Vero cells, 10 µM 7-KC, total cellular RNA at 24 hpi) was “not significantly altered”, the “Specific infectivity: 1 in N genomes infectious” value ([9]; infectious titer vs genome copies in supernatant, Vero, 7-KC present, control 1 in 1200) was ~9000 genomes and the “Activity against human papillomavirus” value [10] was “no activity”. The “Activity against human rotavirus” value [11] was “no activity” and the “Activity against human rhinovirus” value [12] was “minor activity”.

For `C[C@H](CCCC(C)(C)O)[C@H]1CC[C@H]2[C@@H]3CC=C4C[C@@H](O)CC[C@]4(C)[C@H]3CC[C@]12C` [25-hydroxycholesterol], the “ZIKV titers in vitro” value [13] is given as “reduced ZIKV titers” and the “ZIKV titers in vivo” value [14] is given as “reduced ZIKV titers”.

With `CCCCc1oc2ccccc2c1C(=O)c1cc(I)c(OCCN(CC)CC)c(I)c1` [Amiodarone HCl] the activity at 10 µM [1] was 2 ± 0.5%, the “Autophagy Activity Factor (AAF)” value [3] was 60.40 and the “ZIKV IbH titer in Vero cells compared to control” value [4] was “reduced ZIKV IbH titers”.

With `Cl.N` [Ammonium chloride] the “ZIKV replication, time-of-addition” value ([7]; 30 mM ammonium chloride added later in infection, 24 hpi) was “less inhibitory” and the “ZIKV replication, time-of-addition” value ([7]; 30 mM ammonium chloride, 2 h prior to infection and at the time of infection, 24 hpi) was “inhibited ZIKV replication”.

For `CCN(CCO)CCCC(C)Nc1ccnc2cc(Cl)ccc12` (stereo not drawn) [Hydroxychloroquine], the “ZIKV SPH Relative Titer in Vero Cells” value [15] was “decreased titers”, the “Vero Viability” value [16] was 85.3 ± 8.4% of untreated control and the “ZIKV SPH Relative Titer in C6/36 Cells” value [1] was “decreased titers”. For the same compound, the activity at 10 µM [1] was 25.1 ± 12.6%, the “C6/36 Viability” value ([2]; 10 µM) was 35 ± 9.7% of untreated control and the “ZIKV spread in a mouse model” value [17] was “blocked ZIKV spread”.

In the case of `C=CC(C)(C)c1cc(/C=C/C(=O)c2ccc(O)cc2)c(OC)cc1O` [Licochalcone A], the “ZIKV SPH Relative Titer in Vero Cells” value [15] is reported as 7.2 ± 2.9% of untreated control, the “ZIKV SPH Relative Titer in Vero Cells” value ([15]; listed as licochalcone A) is reported as “below 10% of untreated control” and the “Vero Viability” value ([16]; 10 µM compound, 40 h, CellTiter-Glo, ± SEM, three independent trials) is reported as 100.7 ± 9.4% of untreated control. The “Vero Viability” value ([16]; 10 µM compound, 40 h, CellTiter-Glo, ± SEM, three independent trials, listed as licochalcone A) was “above 80% of untreated control”, the “ZIKV SPH Relative Titer in C6/36 Cells” value [1] was 51.8 ± 28.5% of untreated control and the “C6/36 Viability” value [2, 18] was 43 ± 2% of untreated control. The “Autophagy Activity Factor (AAF)” value [3] was 12.33 and the “ZIKV IbH titer in Vero cells compared to control” value [4] was “reduced ZIKV IbH titers”.

For `CO[C@H]1C[C@@H]2CC[C@@H](C)[C@@](O)(O2)C(=O)C(=O)N2CCCC[C@H]2C(=O)O[C@H]([C@H](C)C[C@@H]2CC[C@@H](O)[C@H](OC)C2)CC(=O)[C@H](C)/C=C(\C)[C@@H](O)[C@@H](OC)C(=O)[C@H](C)C[C@H](C)/C=C/C=C/C=C/1C` [Rapamycin], the “ZIKV SPH Relative Titer in Vero Cells” value [15] was “increased ZIKV titers”, the “Vero Viability” value [16] was 66.0 ± 2.6% of untreated control and the “ZIKV SPH Relative Titer in C6/36 Cells” value [1] was “slightly decreased production”. For the same compound, the “ZIKV SPH Relative Titer in C6/36 Cells” value ([1]; listed as rapamycin) was “slightly decreased titers”, the activity at 10 µM [1] was 75.7 ± 47.7% and the “C6/36 Viability” value ([2]; 10 µM) was 59 ± 7.3% of untreated control. The “Autophagy Activity Factor (AAF)” value [3] was 7.74.
